Experimental data published in article PMC12120625, “Cytotoxicity and Nanoassembly Characteristics of Aromatic Amides of Oleanolic Acid and Ursolic Acid” (ACS Omega, 2025).

Columns and labels:
HeLa = assay: Cytotoxicity assay, resazurin, 72 h, HeLa; format: cell-based; conditions: Homo sapiens, cervical cancer
Procedure: (§1) The cytotoxicity screening tests were made with T-lymphoblastic leukemia (CCRF-CEM), breast adenocarcinoma (MCF7), cervical carcinoma (HeLa), and malignant melanoma (G-361) cancer cell lines (the European Collection of Authenticated Cell Cultures, Salisbury, U.K.). Human foreskin fibroblasts (BJ) were used as reference cells, and they were obtained from the American Type Culture Collection (ATCC, Manassas, Virginia). The cells were cultured in DMEM (Dulbecco’s modified Eagle’s medium) or RPMI 1640 (CCRF-CEM). Media used were supplemented with 10% fetal serum, L-glutamine (2 mM), and 1% penicillin–streptomycin mixture (all from Sigma-Aldrich). The cell lines were maintained under standard cell culture conditions at 37 °C and 5% CO2 in a humid environment. Cells were subcultured two or three times a week using the standard trypsinization procedure.
(§2) The cytotoxicity assays were performed according to the standard experimental procedure published earlier. The cell viability was measured after 72 h using resazurin (Sigma-Aldrich). Western blotting and caspase activity assay were performed as described earlier. ,

MCF7 = assay: Cytotoxicity assay, resazurin, 72 h, MCF7; format: cell-based; conditions: Homo sapiens, breast adenocarcinoma
Procedure: as §1, §2

[1] = Cytotoxicity assay, resazurin, 72 h, normal fibroblasts BJ; format: cell-based; conditions: human, BJ normal foreskin fibroblasts, normal foreskin fibroblast
Procedure: as §1, §2

G-361 = assay: Cytotoxicity assay, resazurin, 72 h, G-361; format: cell-based; conditions: Homo sapiens, malignant melanoma
Procedure: as §1, §2

CCRF-CEM = assay: Cytotoxicity assay, resazurin, 72 h, CCRF-CEM; format: cell-based; conditions: Homo sapiens, T-lymphoblastic leukemia
Procedure: as §1, §2

[2] = Nanoassembly by UV spectroscopy and TEM in methanol and water; format: physicochemical; conditions: UV spectra and TEM
Procedure: UV spectra were measured on a Specord 210 spectrometer (Jena Analytical, Germany) in the wavelength range of 200–400 nm. The stock solutions of the studied compounds (9b, 13b, 16b, or 17b; 0.003 mmol) were prepared in methanol (2 mL) at a concentration of 1 mg·mL^–1. A series of water/methanol mixtures were then prepared starting from a water/methanol ratio of 0/100 up to 100/0 in 20% steps. The stock solutions of the studied compounds (0.15 mL) were added separately to each vial containing water/methanol mixtures (3 mL), and the UV spectra were recorded in the wavelength range of 200–400 nm. Aliquots of the stock solutions of the studied compounds (160 μL) were used to prepare samples in the given ratios of water/methanol (0:100 to 100:0 in the 20% steps) mixtures. The UV spectra were recorded in the time 0, 1, 2, 3, and 4 h, followed by a subsequent recording after each 24 h during 7 days (Supporting Information, Figure S33). Note: All target compounds were subjected to this type of investigation; however, self-assembly characteristics were detected by measuring the UV spectra only with 9b, 13b, 16b, and 17b.
Transmission electron microscopy (TEM) was performed with a Tecai G2 Spirit Twin 12 microscope (FEI, Brno, Czech Republic). The samples for TEM were prepared by the fast-drying method, both in methanol and in water. , The studied compounds (2 μL of each one) were dissolved in methanol, and if studies should have been made in water, the compounds were first dissolved in methanol, and then water was added to make the final methanol/water (1:10) solutions. The solutions of compounds in either solvent were made to get the final concentrations of c = 10 mg·mL^–1. Then the solutions were dropped onto a standard carbon-coated copper TEM grid (300 mesh). After 2 min, the rest of the solution was removed by touching the bottom of the grid with a thin strip of filter paper. This fast removal of the solvent, also referred to as “fast-drying” above, is necessary to minimize drying artifacts, as documented in previous studies. , The fast-dried specimens were left to dry completely at an ambient temperature. […] The morphology of selected samples was verified by additional TEM experiments, which employed the samples that were negatively stained with uranyl acetate (UO2Ac2). The negative staining was performed as follows: A small volume (2 μL) of UO2Ac2 (2 wt % of aqueous solution) was dropped on the selected dried specimens from the previous step (i.e., on the dried specimens on the carbon-coated TEM grids). After 1 min, the excess of UO2Ac2 solution was removed (by touching the bottom of the grid with filter paper, like in the previous step). […]

[3] = Solubility in methanol and water; format: physicochemical

| solubility [3] | Compound | IC50 (HeLa) [µM] | IC50 (MCF7) [µM] | IC50 at 72 h [1] [µM] | IC50 (G-361) [µM] | IC50 (CCRF-CEM) [µM] | nanoassembly [2] |
| --- | --- | --- | --- | --- | --- | --- | --- |
|  | CC1(C)CC[C@]2(C(=O)O)CC[C@]3(C)C(=CC[C@@H]4[C@@]5(C)CC[C@H](O)C(C)(C)[C@@H]5CC[C@]43C)[C@@H]2C1 [Compound 1a, (3β)-3-hydroxyolean-12-en-28-oic-acid, reference compound] | > 50 | > 50 | > 50 | > 50 | > 50 |  |
|  | C[C@H]1[C@H](C)CC[C@]2(C(=O)O)CC[C@]3(C)C(=CC[C@@H]4[C@@]5(C)CC[C@H](O)C(C)(C)[C@@H]5CC[C@]43C)[C@H]12 [Compound 1b, (3β)-3-hydroxy-urs-12-en-28-oic-acid, reference compound] | 12.6 ± 2.7 | 16.2 ± 0.5 | 15.6 ± 0.6 | 9.7 ± 0.3 | 13.2 ± 2.7 |  |
|  | CC(=O)O[C@H]1CC[C@]2(C)[C@H]3CC=C4[C@@H]5CC(C)(C)CC[C@]5(C(=O)NCC(=O)O)CC[C@@]4(C)[C@]3(C)CC[C@H]2C1(C)C [Compound 3a] | 35.8 ± 3.4 | 46.9 ± 4.4 | > 50 | 43.1 ± 1.1 | 41 ± 5.9 |  |
|  | CC(=O)O[C@H]1CC[C@]2(C)[C@H]3CC=C4[C@@H]5[C@@H](C)[C@H](C)CC[C@]5(C(=O)NCC(=O)O)CC[C@@]4(C)[C@]3(C)CC[C@H]2C1(C)C [Compound 3b] |  | 49.7 ± 0.5 | > 50 | 38.7 ± 4.9 | 43.3 ± 5.4 |  |
|  | CC(=O)O[C@H]1CC[C@]2(C)[C@H]3CC=C4[C@@H]5CC(C)(C)CC[C@]5(C(=O)NCC(=O)Nc5cc6cccnc6c6ncccc56)CC[C@@]4(C)[C@]3(C)CC[C@H]2C1(C)C [Compound 4a] | 0.3 | 0.7 ± 0.1 | 0.8 ± 0.1 | 0.4 | 0.6 ± 0.1 |  |
|  | CC(=O)O[C@H]1CC[C@]2(C)[C@H]3CC=C4[C@@H]5[C@@H](C)[C@H](C)CC[C@]5(C(=O)NCC(=O)Nc5cc6cccnc6c6ncccc56)CC[C@@]4(C)[C@]3(C)CC[C@H]2C1(C)C [Compound 4b] | 0.4 ± 0.1 | 0.9 ± 0.3 | 1.5 ± 0.5 | 0.5 ± 0.1 | 0.6 ± 0.2 |  |
|  | CC1(C)CC[C@]2(C(=O)NCC(=O)Nc3cc4cccnc4c4ncccc34)CC[C@]3(C)C(=CC[C@@H]4[C@@]5(C)CC[C@H](O)C(C)(C)[C@@H]5CC[C@]43C)[C@@H]2C1 [Compound 5a] | 0.6 ± 0.2 | 0.4 ± 0.1 | 1.5 ± 0.1 | 0.5 ± 0.1 | 0.3 ± 0.1 |  |
|  | C[C@H]1[C@H](C)CC[C@]2(C(=O)NCC(=O)Nc3cc4cccnc4c4ncccc34)CC[C@]3(C)C(=CC[C@@H]4[C@@]5(C)CC[C@H](O)C(C)(C)[C@@H]5CC[C@]43C)[C@H]12 [Compound 5b] | 0.6 ± 0.1 | 0.5 | 1.6 ± 0.1 | 0.5 ± 0.1 | 0.6 ± 0.1 |  |
|  | CC(=O)O[C@H]1CC[C@]2(C)[C@H]3CC=C4[C@@H]5CC(C)(C)CC[C@]5(C(=O)NCC(=O)Nc5ccc(N)cc5)CC[C@@]4(C)[C@]3(C)CC[C@H]2C1(C)C [Compound 7a] | 10.9 ± 1.9 | 12 ± 2.5 | 18.5 ± 2.6 | 8.5 ± 0.1 | 17.1 ± 1.9 |  |
|  | CC(=O)O[C@H]1CC[C@]2(C)[C@H]3CC=C4[C@@H]5[C@@H](C)[C@H](C)CC[C@]5(C(=O)NCC(=O)Nc5ccc(N)cc5)CC[C@@]4(C)[C@]3(C)CC[C@H]2C1(C)C [Compound 7b] | 12.5 ± 2.3 | 14.9 ± 2.2 | 36.1 ± 4.5 | 11.2 ± 0.4 | 18.1 ± 0.4 |  |
|  | CC1(C)CC[C@]2(C(=O)NCC(=O)Nc3ccc(N)cc3)CC[C@]3(C)C(=CC[C@@H]4[C@@]5(C)CC[C@H](O)C(C)(C)[C@@H]5CC[C@]43C)[C@@H]2C1 [Compound 9a] | 28.7 ± 1.8 | 17 ± 2.1 | 37.9 ± 6.1 | 18.6 ± 2.3 | 31.7 ± 2.3 | showed no nanoassembly |
| soluble both in methanol and in water | C[C@H]1[C@H](C)CC[C@]2(C(=O)NCC(=O)Nc3ccc(N)cc3)CC[C@]3(C)C(=CC[C@@H]4[C@@]5(C)CC[C@H](O)C(C)(C)[C@@H]5CC[C@]43C)[C@H]12 [Compound 9b] | 30 ± 2.8 | 16.4 ± 3.7 | 35.2 ± 1.3 | 23.3 ± 1 | 25.8 ± 0.4 | displayed nanoassembly in methanol and water |
|  | CC(=O)O[C@H]1CC[C@]2(C)[C@H]3CC=C4[C@@H]5CC(C)(C)CC[C@]5(C(=O)NCC(=O)Nc5cccc(N)c5)CC[C@@]4(C)[C@]3(C)CC[C@H]2C1(C)C [Compound 11a] | 41.9 ± 4.7 | 39.5 ± 1.5 | > 50 | 38.6 ± 1.3 | > 50 |  |
|  | CC(=O)O[C@H]1CC[C@]2(C)[C@H]3CC=C4[C@@H]5[C@@H](C)[C@H](C)CC[C@]5(C(=O)NCC(=O)Nc5cccc(N)c5)CC[C@@]4(C)[C@]3(C)CC[C@H]2C1(C)C [Compound 11b] | 14.6 ± 2.7 | 15.8 ± 3.2 | 44.8 ± 0.6 | 15 ± 0.8 | 32.6 ± 8.7 |  |
|  | CC1(C)CC[C@]2(C(=O)NCC(=O)Nc3cccc(N)c3)CC[C@]3(C)C(=CC[C@@H]4[C@@]5(C)CC[C@H](O)C(C)(C)[C@@H]5CC[C@]43C)[C@@H]2C1 [Compound 13a] | 19.9 ± 1 | 14.2 ± 1.3 | 45.7 ± 2.2 | 19.5 ± 2.1 | 29.4 ± 4.4 | showed no nanoassembly |
| soluble both in methanol and in water | C[C@H]1[C@H](C)CC[C@]2(C(=O)NCC(=O)Nc3cccc(N)c3)CC[C@]3(C)C(=CC[C@@H]4[C@@]5(C)CC[C@H](O)C(C)(C)[C@@H]5CC[C@]43C)[C@H]12 [Compound 13b] | 26.7 ± 2.7 | 12.8 ± 2.5 | 38.5 ± 0.8 | 14.4 ± 2.9 | 22.3 ± 2.3 | displayed nanoassembly in methanol and water |
